Earlier results as cited in US9968537B2, “Anti-dandruff compositions and hair care formulations containing zinc pyrithione and quaternary ammonium salt” (JUBILANT LIFE SCIENCES LIMITED, priority 2013, dated 2018).

Details: background statement

In the case of `[O-][n+]1ccccc1S.[Zn]` [ZPTO, zinc pyridine-2-thiol-N-oxide], the solubility in water is listed as 6-12 ppm.
